Ki data for 20 compounds are collected here from patent publication US9328106B2, “Cyclic ether pyrazol-4-yl-heterocyclyl-carboxamide compounds and methods of use” (Genentech, Inc., priority 2012, dated 2016).

The target of the first assay is PIM1 (Homo sapiens (Human), UniProt P11309). The assay can be described thus: biochemical. Format: biochemical.
Chain of PIM1 (P11309 whole entry): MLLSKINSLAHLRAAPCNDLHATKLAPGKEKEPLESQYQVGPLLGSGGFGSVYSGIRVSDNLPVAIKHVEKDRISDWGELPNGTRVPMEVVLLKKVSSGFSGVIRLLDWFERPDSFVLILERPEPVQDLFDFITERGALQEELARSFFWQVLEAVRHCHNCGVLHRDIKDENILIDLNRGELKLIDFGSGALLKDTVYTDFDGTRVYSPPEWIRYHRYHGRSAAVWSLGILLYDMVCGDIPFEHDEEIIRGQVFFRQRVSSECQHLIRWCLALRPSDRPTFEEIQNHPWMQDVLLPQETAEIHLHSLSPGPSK
Details: not given
What is called Ki is a measure of affinity in units of concentration, obtained from inhibition or displacement. Regarding `[2H]C([2H])([2H])O[C@@H]1CO[C@H](c2c(NC(=O)c3nc(-c4c(F)cccc4F)sc3N)cnn2C)CC[C@H]1N` [Example 174, 5-Amino-N-[5-[(2S,5R,6S)-5-amino-6-(trideuteriomethoxy)oxepan-2-yl]-1-methyl-pyrazol-4-yl]-2-(2,6-difluorophenyl)thiazole-4-carboxamide], the Ki turned out to be 0.135 nM.

The same assay, now with this note: 20 pM PIM1, 1 μM FAM-peptide, 10 μM ATP, 90 minutes at room temperature; read-out: PIM1 LC3K (KI).
As for `COc1ncccc1-c1nc(C(=O)Nc2cnn(C)c2[C@@H]2CC[C@@H](N)[C@H](F)CO2)cs1` [Example 232, N-(5-((2S,5R,6S)-5-amino-6-fluorooxepan-2-yl)-1-methyl-1H-pyrazol-4-yl)-2-(2-methoxypyridin-3-yl)thiazole-4-carboxamide], the Ki amounted to 1.11 nM.
The same measure, in the same setting: the value for `CO[C@H]1CO[C@H](c2c(NC(=O)c3nc(-c4c(F)ccc(F)c4F)sc3N)cnn2C)CC[C@H]1N` [Example 262, 5-amino-N-(5-((2S,5R,6R)-5-amino-6-methoxyoxepan-2-yl)-1-methyl-1H-pyrazol-4-yl)-2-(2,3,6-trifluorophenyl)thiazole-4-carboxamide] was 0.01 nM; that for `Cn1ncc(NC(=O)c2ccc(F)c(-c3c(F)cc(C4(O)CCOCC4)cc3F)n2)c1[C@@H]1CC[C@@H](N)[C@H](F)CO1` [Example 196, N-(5-((2S,5R,6S)-5-amino-6-fluorooxepan-2-yl)-1-methyl-1H-pyrazol-4-yl)-6-(2,6-difluoro-4-(4-hydroxytetrahydro-2H-pyran-4-yl)phenyl)-5-fluoropicolinamide] was 0.006 nM; that for `Cn1ncc(NC(=O)c2csc(-c3ccc(Cl)cc3F)n2)c1[C@@H]1CC[C@@H](N)[C@H](F)CO1` [Example 313, N-(5-((2S,5R,6S)-5-amino-6-fluorooxepan-2-yl)-1-methyl-1H-pyrazol-4-yl)-2-(4-chloro-2-fluorophenyl)thiazole-4-carboxamide] was 0.002 nM.
Still for that read-out and setting: the result for `CO[C@H]1CO[C@H](c2c(NC(=O)c3csc(-c4c(F)cccc4F)n3)cnn2C)CC[C@H]1N` [Example 221, N-(5-((2S,5R,6R)-5-amino-6-methoxyoxepan-2-yl)-1-methyl-1H-pyrazol-4-yl)-2-(2,6-difluorophenyl)thiazole-4-carboxamide] reads 0.066 nM; that for `Cn1ncc(NC(=O)c2ccc(F)c(-c3c(F)cc(C4(F)COC4)cc3F)n2)c1[C@@H]1CC[C@@H](N)[C@H](F)CO1` [Example 194, N-(5-((2S,5R,6S)-5-amino-6-fluorooxepan-2-yl)-1-methyl-1H-pyrazol-4-yl)-6-(2,6-difluoro-4-(3-fluorooxetan-3-yl)phenyl)-5-fluoropicolinamide], 0.022 nM; that for `Cn1ncc(NC(=O)c2nc(-c3c(F)cccc3F)sc2N)c1[C@@H]1CC[C@@H](CN)O1` [Example 172, 5-Amino-N-[5-[(2S,5S)-5-(aminomethyl)tetrahydrofuran-2-yl]-1-methyl-pyrazol-4-yl]-2-(2,6-difluorophenyl)thiazole-4-carboxamide], 0.15 nM.
On the same count and under the same terms, the result for `Cn1ncc(NC(=O)c2nc(-c3c(F)cccc3F)sc2N)c1[C@H]1CC[C@H](CN)O1` [Example 171, 5-Amino-N-[5-[(2R,5R)-5-(aminomethyl)tetrahydrofuran-2-yl]-1-methyl-pyrazol-4-yl]-2-(2,6-difluorophenyl)thiazole-4-carboxamide] reads 0.027 nM; that for `CC[C@@H]1C[C@H](N)CC[C@H](c2c(NC(=O)c3nc(-c4c(F)cccc4F)sc3N)cnn2C)O1` [Example 125, 5-amino-N-(5-((2R,7R)-5-amino-7-ethyloxepan-2-yl)-1-methyl-1H-pyrazol-4-yl)-2-(2,6-difluorophenyl)thiazole-4-carboxamide], 3.5 nM.
`Cn1ncc(NC(=O)c2csc(-c3c(F)cncc3F)n2)c1[C@@H]1CC[C@@H](N)[C@@H](F)CO1` [Example 247, N-(5-((2S,5R,6R)-5-amino-6-fluorooxepan-2-yl)-1-methyl-1H-pyrazol-4-yl)-2-(3,5-difluoropyridin-4-yl)thiazole-4-carboxamide]: the Ki was found to be 0.112 nM.
The same measure, in the same setting: the value for `Cn1ncc(NC(=O)c2nc(-c3c(F)cccc3F)sc2N)c1[C@H]1CCC(F)[C@@H](N)CO1` (stereo in doubt) [Example 145, 5-Amino-N-[5-[6-amino-5-fluoro-oxepan-2-yl]-1-methyl-pyrazol-4-yl]-2-(2,6-difluorophenyl)thiazole-4-carboxamide] was 0.351 nM; that for `CC1C(c2c(NC(=O)c3nc(-c4c(F)cccc4F)sc3N)cnn2C)OCC(C)(O)C1N` (centres unmarked) [Example 142, 5-amino-N-[5-(4-amino-5-hydroxy-3,5-dimethyl-tetrahydropyran-2-yl)-1-methyl-pyrazol-4-yl]-2-(2,6-difluorophenyl)thiazole-4-carboxamide] was 0.441 nM; that for `Cn1ncc(NC(=O)c2csc(-c3cccc4cnn(C)c34)n2)c1[C@@H]1CC[C@@H](N)[C@H](F)CO1` [Example 403, N-[5-[(2S,5R,6S)-5-amino-6-fluoro-oxepan-2-yl]-1-methyl-pyrazol-4-yl]-2-(1-methylindazol-7-yl)thiazole-4-carboxamide] was 5.91 nM.
On the same count and under the same terms, the result for `Cn1ncc(NC(=O)c2nc(-c3cccc(C(F)(F)F)c3F)sc2N)c1[C@@H]1CC[C@@H](N)[C@@H](F)CO1` [Example 268, 5-amino-N-(5-((2S,5R,6R)-5-amino-6-fluorooxepan-2-yl)-1-methyl-1H-pyrazol-4-yl)-2-(2-fluoro-3-(trifluoromethyl)phenyl)thiazole-4-carboxamide] reads 0.028 nM; that for `Cc1cccc(F)c1-c1nc(C(=O)Nc2cnn(C)c2[C@@H]2CC[C@@H](N)[C@H](F)CO2)c(C)s1` [Example 369, N-[5-[(2S,5R,6S)-5-amino-6-fluoro-oxepan-2-yl]-1-methyl-pyrazol-4-yl]-2-(2-fluoro-6-methyl-phenyl)-5-methyl-thiazole-4-carboxamide], 3.59 nM.
As for `Cn1ncc(NC(=O)c2nc(-c3c(F)cccc3F)sc2N)c1C1CC(F)(F)CC(N)CO1` (centres unmarked) [Example 132, 5-amino-N-[5-(6-amino-4,4-difluoro-oxepan-2-yl)-1-methyl-pyrazol-4-yl]-2-(2,6-difluorophenyl)thiazole-4-carboxamide], the inhibition constant (Ki) was determined as 0.014 nM.
Still for that read-out and setting: the result for `Cn1ncc(NC(=O)c2nc(C3=CCCC3)sc2N)c1[C@@H]1CC[C@@H](N)[C@H](F)CO1` [Example 333, 5-amino-N-(5-((2S,5R,6S)-5-amino-6-fluorooxepan-2-yl)-1-methyl-1H-pyrazol-4-yl)-2-(cyclopent-1-en-1-yl)thiazole-4-carboxamide] reads 0.03 nM; that for `Cn1ncc(NC(=O)c2csc(-c3c(F)cc(C4(O)CC4)cc3F)n2)c1[C@@H]1CC[C@@H](N)[C@H](F)CO1` [Example 225, N-(5-((2S,5R,6S)-5-amino-6-fluorooxepan-2-yl)-1-methyl-1H-pyrazol-4-yl)-2-(2,6-difluoro-4-(1-hydroxycyclopropyl)phenyl)thiazole-4-carboxamide], 0.028 nM.
Regarding `Cn1ncc(NC(=O)c2nc(-c3cc(Cl)ccc3F)sc2N)c1[C@@H]1CC[C@@H](N)[C@H](F)CO1` [Example 291, 5-amino-N-(5-((2S,5R,6S)-5-amino-6-fluorooxepan-2-yl)-1-methyl-1H-pyrazol-4-yl)-2-(5-chloro-2-fluorophenyl)thiazole-4-carboxamide], the Ki came to 0.018 nM.
